The values that follow come from a melting point compilation (Tetko et al.; mined from patent text by program, amines drawn as free bases though some values may be those of a salt).

The structures appear in SMILES notation. A value given as a limit tells only on which side of the number the result lay.

`C=C[C@]1(C)CCc2c(C)c(OCc3ccccc3)c(C)c(C)c2O1` yielded a melting point of 63 to 66 °C.
The same measure for `COc1c(N2CCC(NC3CC3)C(C)C2)c(F)cc2c(=O)c(C(=O)O)cn(C3CC3)c12` (stereo not given): 182 to 184 °C; for `NC(=S)NN=C(CCCCl)c1ccc(O)cc1`: 126 to 129 °C; for `O=C(NCCn1cncn1)c1ccco1`: 131 to 133 °C.
Under `COc1cc(OC)nc(Oc2cccc(Cl)c2N)n1` stands 86 to 87 °C; under `Oc1ccc(C2=CCCCC2)cc1`, 115 to 119 °C.
The same measure for `Cc1nc2c(N)cc(Br)cc2n1O`: 257 to 258 °C; for `COc1ccc(CCC(=O)c2cccc(O)c2)cc1OC`: 132 to 134 °C; for `CCn1cc(C2(c3cccc(-c4cccnc4F)c3)N=C(N)N(C)C2=O)cc1CO` (stereo not given): 170 to 172 °C.
In the case of `CC(C)(C)c1cc(-n2nc3c(Br)ccc(Br)c3n2)c(O)c(C(C)(C)C)c1`, the melting point lay in the range of 244 to 246 °C.
The same measure for `O=c1cc(O)c2ccc(F)cc2o1`: 229 to 230 °C.
The same measure for `O=C1NC(=O)C(Cc2ccc(OCCON=Cc3cnc4ccccc4c3)cc2)S1` (stereo not given): 182 to 184 °C; for `O=C1c2nccnc2C(O)N1c1ccc(Cl)cn1` (stereo not given): 236 °C; for `Cc1cc(-c2nnc3c4ccccc4c(OCc4ccn(C)n4)nn23)no1`: 243 to 244 °C.
Under `Clc1ccc(CN2CCC(c3cc(-c4cccc(Cl)c4)[nH]n3)CC2)cc1` stands 156 to 157 °C.
In turn, `CC#CC1Cc2ccc(C(=O)CCC(=O)N3CCC(c4ccc(Cl)cc4)CC3)cc2CCN1` (stereo not given) yielded a melting point of 132 to 134 °C.
The compound `COC(=O)c1ccc(CCc2cnc3nc(N)nc(O)c3c2)cc1` had a melting point greater than 300 °C.
The same measure for `COc1cc2c(Nc3ccc(C)c(O)c3)ncnc2cc1OCc1ccncn1`: 290 to 291 °C; for `OCCNN=C(Cc1ccncc1)c1ccc(F)cc1`: 122 to 123 °C; for `COC(=O)c1c(Nc2ccccc2)nn(C(C)=O)c1C`: 115 to 116 °C.
The same measure for `CSc1ccc(C=C2C(C)=C(CC(=O)O)c3cc(F)c(F)cc32)cc1`: 181 to 182 °C; for `NC(=O)c1cnc2c(N)cccc2c1`: 164 to 165 °C; for `CC(C)CC(=O)Nc1cccc(-c2ccnc3c(-c4cccs4)cnn23)c1`: 148 to 150 °C.
Compound `CCNC(=O)c1c([Si](C)(C)C)ccc(Cl)c1Cl` registered a melting point of 96 to 98 °C.
`COCCN(C)C1=N/C(=C\c2c[nH]c3ncc(Cl)cc23)C(=O)N1` showed a melting point of 281 °C.
The same measure for `COCCCC(=O)NNC(=O)N1Cc2ccccc2Oc2ccc(Cl)cc21`: 142 to 144 °C.
The same measure for `COC(=O)C(C)Oc1ccc(Oc2ncc(Cl)cc2[N+](=O)[O-])cc1` (stereo not given): 91 to 92 °C.
Under `COC(=O)C1Oc2ccc(C3CCCCC3)cc2C(C)(c2ccccc2)O1` (stereo not given) stands 107 °C; under `COc1ccc2nc(COc3ccc(CC4SC(=O)N(C(c5ccccc5)(c5ccccc5)c5ccccc5)C4=O)cc3)n(C)c2n1` (stereo not given), 80 to 85 °C.
In the case of `O=C(CC1c2ccccc2Sc2ccccc21)Nc1ccc(C(=O)O)cc1`, the melting point fell in the range of 265 to 266 °C.
Regarding `CC(=NOCC(N)=O)c1ccc(Cl)c(Cl)c1`, the melting point fell in the range of 111 to 112 °C.
The same measure for `CS(=O)(=O)NCCCCn1c(CO)nc2c(N)nc3ccccc3c21`: 216 to 219 °C.
Under `NS(=O)(=O)C1(c2ncc(C(F)(F)F)cc2Cl)C=CC(Cl)=CC1Cl` (stereo not given) stands 125 to 126 °C; under `O=C(O)CCN1CCCCC1=O`, 105 to 110 °C.
For the compound `COc1ccc(C2=C(c3ccc(OC4CCCCO4)cc3)CCCc3cc(OC4CCCCO4)ccc32)cc1` (stereo not given), the melting point lay within 160 to 161 °C.
`CCC(=O)OCc1ccc2oc(=O)c(C(=O)Oc3cncc(Cl)c3)cc2c1` registered a melting point of 156 to 158 °C.
Take `O=C(O)Cn1ccc(=O)n(Cc2cccc([N+](=O)[O-])c2)c1=O`: the melting point lay within 161 to 162 °C.
Under `C#CCC(CC#C)(C(=O)O)S(=O)(=O)c1ccc(OC)cc1` stands 156 °C; under `CCc1cccc(Sc2ccccc2)c1NC(=O)CC1c2ccccc2Oc2ccccc21`, 237 to 239 °C; under `COC(=O)CCCc1cc2cc(Cl)ccc2n1S(=O)(=O)c1c(C)nn(C)c1C`, 125 to 127 °C.
`CNC(=O)c1ccccc1Nc1nc(Nc2cc3c(cc2OC)CC(=O)N(CCCN2CCOCC2)CC3)ncc1Cl` came in with a melting point of 92 to 100 °C.
Under `COC(=O)C1Cc2c([nH]c3ccccc23)C(c2cccc(Cl)c2)N1` (stereo not given) stands 150 to 160 °C; under `CCN=C(N)N(CC)N=C(C=Cc1ccc(OC(F)F)cc1)C=Cc1ccc(OC(F)F)cc1`, 97 to 99 °C.
As to `COc1cc(C(=O)OCC2(N(C)C)CCSc3ccccc32)cc(OC)c1OC` (stereo not given), the melting point fell in the range of 146 to 148 °C.
The same measure for `O=C1c2ccccc2C(c2ccc(Cl)cc2)(c2c(O)cc(O)cc2O)N1Cc1ccc([N+](=O)[O-])cc1` (stereo not given): 196 to 198 °C.
The same measure for `O=C(Nc1ccccc1)c1ccccc1Cl`: 96.4 to 98.3 °C.
Regarding `CCCNC(=S)NCCC1Cc2ccc(-c3ccc(=O)[nH]n3)cc2C1` (stereo not given), the melting point was in the range of 155 to 157 °C.
Under `C=CCOc1ccc(C(=O)C=Cc2ccc(OC)c(OC)c2)cc1` stands 74.5 to 75 °C; under `O=C1OCCC1n1nc(-c2c(-c3ccccc3)nn3ccccc23)ccc1=O` (stereo not given), 179 to 180 °C; under `CSc1ccc(C(=O)c2c(C)cc3n2CCC3C(=O)O)n1C` (stereo not given), 182 to 184 °C.
The same measure for `COC(=O)c1cc(C)cc(OC)c1C1=CC(=O)c2c(O)cccc2C1=O`: 140 to 143 °C; for `COc1cc2cc(C(=O)O)c(C(=O)O)nc2cc1OC`: 264 to 266 °C; for `CN1C(=O)c2cncnc2Nc2ccccc21`: 236 to 237 °C.
As to `COC(=O)C(=O)c1ccc(OCCCOc2ccccc2)cc1`, the melting point was in the range of 61 to 62 °C.
Under `COc1ccc(OCC(=O)O)c(C(Nc2ccc(C(=N)N)cc2)C(=O)O)c1` (racemic) stands 213 °C; under `C=C(CC(O)C(=O)OCC)CC(NC=O)(C(=O)OCC)C(=O)OCC` (stereo not given), 68 °C.
Under `Cc1ccc(S(=O)(=O)NC(=O)N2C(=O)C(c3ccccc3)N2C(c2ccccc2)c2ccccc2)cc1` (stereo not given) stands 154 to 156 °C; under `CN1CC2(OCCO2)c2ccc3ccccc3c2S1(=O)=O`, 169 to 171 °C.
In the case of `CCOC(=O)C(=CNc1ccc(F)c(F)c1OCC(C)OS(=O)(=O)c1ccc(C)cc1)C(=O)OCC` (stereo not given), the melting point is 61 to 62 °C.
`Cc1nc2ccccc2c(=O)n1CCN1CCC(C(=O)c2ccc(F)cc2)CC1` returned a melting point of 165 °C.
`O=C(O)c1cc2n(c1)CCCC2` showed a melting point of 131 to 134 °C.
Under `CC(=O)NC[C@H]1CN(c2ccc(N3CCN(CCN4CCCCC4)CC3)c(F)c2)C(=O)O1` stands 169 to 170 °C.
Regarding `O=C1NC(c2ccc(Cl)cc2)c2ccccc2C1CCN1CCOCC1` (stereo not given), the melting point was in the range of 239 to 245 °C.
The same measure for `CN1CC(c2ccc(S(C)(=O)=O)cc2)=C(c2cccc(Cl)c2)C1=O`: 168 to 170 °C; for `CN1CCC(C2Nc3cc(Br)ccc3N3CCc4cccc2c43)CC1` (stereo not given): 206 to 208 °C; for `Oc1cc2cc(C3CCCC3)sc2c(Cl)c1Cl`: 62 to 63.5 °C.
The same measure for `CCCCCS(=O)(=O)NC(=O)/C=C/c1cc(OCCCC)nn1Cc1ccc(Cl)cc1Cl`: 95 to 98 °C; for `CS(=O)(=O)c1ccc(-c2cc(Cl)ccc2OCC(=O)O)cc1Cl`: 140 to 142 °C.
`O=C(CCCl)c1ccc2c(c1)Cc1cc(C(=O)CCCl)ccc1S2` returned a melting point of 105 to 107 °C.
Under `O=C1c2cccc3c4c(cc(c23)C(=O)N1O)OCO4` stands 303 to 304 °C.
The same measure for `N#Cc1cnn2c1N(C(=O)CCl)CC=C2c1cccc(C(F)(F)F)c1`: 179 to 181 °C.
The same measure for `COC(=O)c1cccc(COc2cc(Cl)cnc2N)c1`: 148 to 150 °C; for `c1ccc(Cn2ccnc2CC2COc3ccccc3O2)cc1` (stereo not given): 105 to 107 °C.
`C=CCn1cccc1C(N)=S` returned a melting point of 80.5 to 83 °C.
The same measure for `O=c1[nH]nc2n1-c1ccc(Cl)cc1C(c1ccccc1F)CC2` (stereo not given): 236 to 238 °C; for `CCC(C)n1nc(C)n(-c2ccc(N3CCCN(c4ccc(C(=O)OC)cc4)CC3)cc2)c1=O` (stereo not given): 152 to 153 °C.
For the compound `CS(=O)(=O)CCNc1nccc(Oc2ccc(NC(=O)c3cc(F)cc(N4CCCCC4)c3)c3ccccc23)n1`, the melting point was 102 to 104 °C.
`COC(=O)C1=NNC(C)=C(C(=O)OC)C1c1ccc(OC)cc1` (stereo not given) gave a melting point of 154 °C.
Under `COc1ccc([C@H](Sc2ccccc2N)[C@@H](O)C(N)=O)cc1` stands 110 to 112 °C.
The same measure for `CC(C)N(CCC1(c2ccccc2)C(=O)NCN2CCCCC21)C(C)C` (stereo not given): 164 to 166 °C; for `O=C(CN1CCN(CC2CCn3c(nc4ccccc43)S2)CC1)N1CCCC1` (stereo not given): 159 to 162 °C; for `CC(=O)SC1CC(=O)N1C(Cl)C(=O)OCc1ccc([N+](=O)[O-])cc1` (stereo not given): 72 to 73 °C.
The same measure for `Cc1nc(Nc2nc3ccccc3[nH]2)nc(O)c1CC(=O)O`: greater than 300 °C; for `COc1cc(OC)c2ncc(C(=O)NCc3ccc(Cl)cc3)c(O)c2c1`: 270 to 271 °C.
Compound `CCOc1cc2c(-c3ccnc(Cl)c3)c(C(=O)OC)c(C(=O)OC)cc2cc1OC` yielded a melting point of 196 to 198 °C.
The same measure for `COc1cc(Nc2c(C#N)cnc3cc(-c4ccccc4CN4CCOCC4)ccc23)c(Cl)cc1Cl`: 107 to 109 °C; for `Cn1cccc1C1=C(c2cn(C)c3ccccc23)C(=O)NC1=O`: 248 to 250 °C; for `Nc1nc(CSCCN2CCN(C(c3ccccc3)c3ccccc3)CC2)cs1`: 159 to 161 °C.
`N#CC(CC(=O)O)c1ccc(Cl)c(Cl)c1` (stereo not given) displayed a melting point of 104 °C.
The same measure for `CC12CCC3C4CCC(=O)C=C4CCC3C1CCC2=O` (stereo not given): 163 to 169 °C.
